Assay results: ChEMBL document CHEMBL1134912, “Cytotoxic acridinylthiourea and its platinum conjugate produce enzyme-mediated DNA strand breaks” (Bioorg Med Chem Lett, 2002)
Active and inactive are the calls of the source. The rule behind the calls is not given here.

Key:
Nucleic Acid = experiment: Compound was tested for the induction of DNA strand breaks at concentrations of 0.1 and 0.5 uM; Active; assay type: nucleic-acid assay
Ovarian cancer cell line = experiment: Clonogenic survival activity against human ovarian cancer cells (2008, C13*) cells; 0.01-10 range; assay type: functional, cell-based
[1] = Concentration required for complete inhibition of relaxation of supercoiled plasmid (form I) at concentrations; assay type: functional

- Activity (Nucleic Acid): Active
Structure (SMILES): CNC(=S)N(C)CCNc1c2ccccc2nc2ccccc12
- IC50 (Ovarian cancer cell line): 10 nM
- Inhibition concentration [1]: > 25 µM
